Patent publication US6046207A, “Benzopyranopyrrole and benzopyranopyridine α-1 adrenergic compounds” (priority 1997, dated 2000)
Read-outs that look alike come from different tables or passages of the source.

Tests used:
[1] = target: T1, α-1b (hamster) adrenoreceptor (Mesocricetus auratus, UniProt P18841); experiment: biochemical; settings: read-out: Radioligand Binding Ki, 1b (Hamster)
T1 sequence (P18841 1-515): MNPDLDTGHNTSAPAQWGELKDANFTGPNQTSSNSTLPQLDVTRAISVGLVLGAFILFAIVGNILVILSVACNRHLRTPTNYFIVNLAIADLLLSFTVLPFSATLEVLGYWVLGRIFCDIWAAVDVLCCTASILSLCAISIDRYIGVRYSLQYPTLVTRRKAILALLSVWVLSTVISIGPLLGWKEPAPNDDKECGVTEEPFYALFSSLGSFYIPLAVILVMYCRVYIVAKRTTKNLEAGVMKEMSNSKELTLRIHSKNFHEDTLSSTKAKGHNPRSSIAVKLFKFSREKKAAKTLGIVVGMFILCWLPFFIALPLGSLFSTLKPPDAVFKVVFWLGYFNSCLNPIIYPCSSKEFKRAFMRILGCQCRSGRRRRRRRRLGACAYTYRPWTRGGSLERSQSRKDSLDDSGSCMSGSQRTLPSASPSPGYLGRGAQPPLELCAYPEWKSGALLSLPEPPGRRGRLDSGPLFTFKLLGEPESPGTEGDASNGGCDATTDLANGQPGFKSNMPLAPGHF
Description: (§1) In the following, for purposes of discussing alpha-1 adrenoreceptor subtypes, the IUPHAR convention of using lower case letters to define molecular clones and upper case letters to indicate pharmacologically defined adrenoreceptors has been followed. Moreover, the newly recommended nomenclature for alpha-1 (α1a, α1b, α1d) has been used.
(§2) Additionally, binding affinity against the pharmacologically defined α-1A adrenoreceptor (rat submaxillary gland) was measured.
(§3) The cDNA clones encoding the α-1 adrenoreceptors (α-1a, α-1b, and α-1d) were obtained from TULCO (Triangle Universities Licensing Consortium, Research Triangle Park, NC) and inserted into the eukaryotic expression vector SnaB30. In this vector, expression of the adrenoreceptor gene is under the transcriptional control of an SV40 early promoter. Positive drug selection is provided by a neomycin-resistance gene. Mouse fibroblast cells (LTK) were transfected with the α1 expression plasmids and grown in Dulbecco's modified Eagle's medium (DMEM) containing 10% fetal calf serum and 30 μM G418. Stable G418-resistant parental lines were generated, with successful expression of adrenoreceptor protein monitored using radioligand binding techniques. Stable single cell clones derived from the parental lines were screened in adrenoreceptor binding assays to identify clones having high adrenoreceptor density. […]

[2] = tested on: α-1 adrenoreceptors; settings: cited from earlier work; for urinary flow rates and subjective symptom scores, longer term studies: BPH patients
[3] = target: T2, α-1B adrenoreceptor (rat spleen) (Rattus norvegicus, UniProt P15823); experiment: Functional antagonism: inhibition of phenylephrine-induced contraction of rat spleen; parameters: species or system tissue; settings: for more potent effect on spleen smooth muscle: rat spleen versus the other tissues, in words
T2 construct: contraction of rat spleen; from tissue; host or cells: rat spleen
T2 sequence (P15823 1-515): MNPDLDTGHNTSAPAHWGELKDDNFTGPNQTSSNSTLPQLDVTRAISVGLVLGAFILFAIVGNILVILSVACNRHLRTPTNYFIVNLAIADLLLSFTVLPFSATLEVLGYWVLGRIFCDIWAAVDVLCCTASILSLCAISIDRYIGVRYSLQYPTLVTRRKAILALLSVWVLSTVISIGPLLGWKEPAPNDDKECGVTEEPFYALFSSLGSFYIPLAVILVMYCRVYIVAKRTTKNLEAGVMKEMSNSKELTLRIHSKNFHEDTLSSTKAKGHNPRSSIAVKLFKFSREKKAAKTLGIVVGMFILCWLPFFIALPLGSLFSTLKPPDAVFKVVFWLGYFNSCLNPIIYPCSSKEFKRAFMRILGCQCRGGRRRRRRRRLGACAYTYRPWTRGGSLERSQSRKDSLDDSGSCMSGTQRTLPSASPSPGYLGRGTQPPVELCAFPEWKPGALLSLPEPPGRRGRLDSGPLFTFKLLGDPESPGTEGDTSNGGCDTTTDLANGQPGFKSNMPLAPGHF
From the text: (§4) Functional assays indicative of pharmacologically defined α-1 adrenoreceptors were used to further characterize compounds. […] For each of these models, agonist dose response curves were repeated against increasing concentrations of test agent to derive a Schild plot [log ([…]) against log (molarity of test agent)] to determine the pA2.

[4] = target: T3, α-1A adrenoreceptor (rat vas deferens) (Rattus norvegicus, UniProt P43140); experiment: Functional antagonism: inhibition of phenylephrine-induced contraction of rat vas deferens; parameters: species or system tissue; settings: Schild
T3 construct: contraction of rat vas deferens; from tissue; host or cells: rat vas deferens
T3 sequence (P43140 1-466): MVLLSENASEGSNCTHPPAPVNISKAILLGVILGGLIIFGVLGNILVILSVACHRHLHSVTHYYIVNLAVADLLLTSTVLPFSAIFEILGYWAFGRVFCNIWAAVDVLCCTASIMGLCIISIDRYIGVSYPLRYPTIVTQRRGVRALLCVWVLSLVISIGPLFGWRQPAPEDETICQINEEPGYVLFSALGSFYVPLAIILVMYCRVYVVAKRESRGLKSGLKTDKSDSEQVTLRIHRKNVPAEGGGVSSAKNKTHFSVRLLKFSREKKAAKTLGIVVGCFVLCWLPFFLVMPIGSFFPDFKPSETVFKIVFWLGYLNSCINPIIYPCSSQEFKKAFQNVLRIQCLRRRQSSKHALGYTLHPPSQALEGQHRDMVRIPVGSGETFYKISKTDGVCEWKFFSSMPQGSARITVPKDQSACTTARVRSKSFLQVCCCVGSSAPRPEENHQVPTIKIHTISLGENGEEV
From the text: as §4

[5] = target: T4, α-1a (bovine) adrenoreceptor (Bos taurus, UniProt P18130); experiment: Radioligand binding, [3H]-prazosin displacement, cloned α-1a expressed in LTK cells; settings: cloned bovine α-1a, LTK cell membranes, [3H]prazosin 0.2 nM
T4 construct: expressed in transfected cells; host or cells: mouse fibroblast LTK cells, vector SnaB30, cDNA from TULCO
T4 sequence (P18130 1-466): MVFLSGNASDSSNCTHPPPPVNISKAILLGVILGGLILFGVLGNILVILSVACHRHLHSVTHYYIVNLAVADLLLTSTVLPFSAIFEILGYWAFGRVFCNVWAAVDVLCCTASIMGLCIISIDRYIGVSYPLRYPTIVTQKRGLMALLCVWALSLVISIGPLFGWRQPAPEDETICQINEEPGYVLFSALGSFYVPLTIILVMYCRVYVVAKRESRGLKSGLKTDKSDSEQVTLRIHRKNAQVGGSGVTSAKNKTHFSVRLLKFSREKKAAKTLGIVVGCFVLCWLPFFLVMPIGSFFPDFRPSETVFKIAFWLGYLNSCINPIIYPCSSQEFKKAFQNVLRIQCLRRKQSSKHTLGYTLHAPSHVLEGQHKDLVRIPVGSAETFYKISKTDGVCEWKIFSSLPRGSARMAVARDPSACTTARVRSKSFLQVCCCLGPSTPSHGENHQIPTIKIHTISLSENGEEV
Description: as §1, §2, §3

[6] = target: T5, α-1A adrenoreceptor (rat submaxillary gland) (Rattus norvegicus, UniProt P43140); experiment: Radioligand binding, [3H]-prazosin displacement, α-1A (rat submaxillary gland); settings: [3H]prazosin 0.2 nM
T5 construct: Rat submaxillary glands were used for α-1A adrenoreceptors; from tissue; host or cells: rat submaxillary gland membranes
T5 sequence (P43140 1-466): T3 sequence (P43140 1-466)
Description: as §1, §2
Cells were detached from the roller bottles by incubating for 15 minutes at 37° C. in a Tris-EDTA solution (10 mM Tris, 100 mM NaCl, 1 mM EDTA, pH=7.4). The cell suspension from each roller bottle was decanted into tared centrifuge tubes and kept on ice. An aliquot of each cell suspension was generally taken for cell counting. […] The supernatant was decanted and the pellet weighed to determine the wet weight of cells. Cells were washed a final time in 40 vol 5 mM Tris-HCl, 5 mM EDTA, pH=7.7, and centrifuged at 40,000×G for 10 minutes. Cells were homogenized in 10 mL of 50 mM Tris-HCl, 5 mM EDTA (pH=7.4) and diluted to 40 mL/tube. Homogenates were centrifuged at 40,000×G for 10 minutes. […]
Receptor binding assays for α-1 adrenoreceptors were performed essentially as described by Greengrass and Bremner (Eur. J. Pharmacol. 55: 323-326 (1979)). […] Radioactivity was determined by standard liquid scintillation techniques.

| Compound | urinary flow rates and subjective symptom scores, longer term studies [2] | more potent effect on spleen smooth muscle [3] | further results |
| --- | --- | --- | --- |
| COc1ccc2c(c1)[C@@H]1CN(CCCn3c(=O)[nH]c4c(sc5ncccc54)c3=O)C[C@@H]1CO2 (racemic) [Example 77, 3-[3-((±)-cis-8-Methoxy-1,2,3,3a,4,9b-hexahydro-[1]-benzopyrano[3,4-c]pyrrol-2-yl)propyl]-pyrido[3',2':4,5]thieno[3,2-d]pyrimidine-2,4(1H,3H)-dione] | – | – | Ki [1]: 10000 nM |
| COc1cc2nc(N3CCN(C(=O)C4COc5ccccc5O4)CC3)nc(N)c2cc1OC (centres unmarked) [Doxazosin, doxazosin] | significant improvements in urinary flow rates and subjective symptom scores | a more potent effect on spleen smooth muscle by approximately an order of magnitude | – |
| COc1cccc2c1[C@@H]1CN(CCCCn3c(=O)[nH]c4c(sc5nc(Cl)ccc54)c3=O)C[C@@H]1CO2 [Example 32, 3-[4-((3aR,9bR)-cis-9-Methoxy-1,2,3,3a,4,9b-hexahydro-[1]-benzopyrano[3,4-c]pyrrol-2-yl)butyl]-7-chloro-pyrido[3',2':4,5]thieno[3,2-d]pyrimidine-2,4(1H,3H)-dione] | – | – | Ki ([1]; cloned hamster α-1b, LTK cell membranes, [3H]prazosin 0.2 nM): 9.95 nM; In Vitro Characterization (pA2), Rat Vas [4]: 9.46; In Vitro Characterization (pA2), Rat Spleen ([3]; rat spleen, phenylephrine, Schild): 7.24; Ki [5]: 0.093 nM; Ki [6]: 1.01 nM |
| COc1cc2nc(N3CCN(C(=O)c4ccco4)CC3)nc(N)c2cc1OC [Prazosin, prazosin] | significant improvements in urinary flow rates and subjective symptom scores | a more potent effect on spleen smooth muscle by approximately an order of magnitude | urinary incontinence during antihypertensive treatment ([2]; women, antihypertensive treatment): urinary incontinence developed in women |
| COc1cc2nc(N3CCN(C(=O)C4CCCO4)CC3)nc(N)c2cc1OC (centres unmarked) [Terazosin, terazosin] | significant improvements in urinary flow rates and subjective symptom scores | a more potent effect on spleen smooth muscle by approximately an order of magnitude | – |
| O=C(NC1CCN(CCc2c[nH]c3ccccc23)CC1)c1ccccc1 [indoramin] | significant improvements in urinary flow rates and subjective symptom scores | – | – |
